Consider 14 molecules from patent publication US20260083708A1, “IL-17 MODULATORS AND USES THEREOF” (NNOCARE PHARMA INC., priority 2024, published 2026).

The structures appear in SMILES notation.

Test [1] deals with IL-17AF-induced IL-17 signaling pathway. Briefly: Inhibition of IL-17AF-induced IL-17 signaling pathway. The note with it: Homo sapiens; IL-17AF used instead of IL-17AA; read-out: IC50 for Inhibiting IL-AF Signaling. It counts as cell-based. The essentials:
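HEK293-derived HEK-Blue IL-17 cells (IL-17RA/RC, ACT1, NF-κB/AP-1-driven SEAP) preincubated 1 hour at 37° C with serially diluted compound from 10 μM, then stimulated with IL-17AF for 20 hours. SEAP read colorimetrically at 620 nm; IC50 from 4-parameter fit of % inhibition.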

The next test concerns the target T1, IL-17AA and IL-17RA (Homo sapiens, UniProt Q16552).
T1 construct: purchased Sino Biological 12047-H07B (IL-17AA); 10895-H02H (IL-17RA)
T1 sequence (Q16552 24-155): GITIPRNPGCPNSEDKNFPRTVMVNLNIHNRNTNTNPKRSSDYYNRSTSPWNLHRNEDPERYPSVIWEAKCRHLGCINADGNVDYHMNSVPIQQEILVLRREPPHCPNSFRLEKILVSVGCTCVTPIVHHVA
Description: Competitive inhibition of human IL-17AA and IL-17RA binding (HTRF). The note with it: recombinant IL-17AA (His-tag) and IL-17RA (hFc-tag); read-out: IC50 for Inhibiting IL-AA/IL-RA Binding. Put shortly: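 His-IL-17AA (1 nM) premixed 1 h with anti-His-Tb (0.4 nM), and Fc-IL-17RA (1 nM) with anti-IgG-d2 (1 μg/mL); these are pre-mix levels. Compounds, diluted from 10 μM, preincubated 2 h RT with IL-17AA mix; IL-17RA mix then added, 20 min. 665/615 ratio vs no-compound and no-IL-17AA controls; IC50 by 4-parameter fit.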
(Time-resolved FRET reads energy transfer from a long-lived donor to a nearby acceptor.)

The subject of test [2] is IL-17AA-induced IL-17 signaling pathway. Description: Inhibition of IL-17AA-induced IL-17 signaling pathway in HEK-Blue IL-17 reporter cells (SEAP). It counts as cell-based. The note with it: Homo sapiens; HEK-Blue IL-17 cells, IL-17AA 2.5 ng/mL, 20 hours; read-out: IC50 for Inhibiting IL-AA Signaling. The essentials:
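HEK-Blue IL-17 cells (HEK293 expressing human IL-17RA/RC, ACT1 and NF-κB/AP-1-driven SEAP), 10,000/well, pre-incubated with compound (serial dilution from 10 μM) for 1 h at 37 °C, then stimulated with IL-17AA at 2.5 ng/mL final for 20 h. SEAP in supernatant read with Quanti-Blue at 620 nm; IC50 by 4-parameter fit.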

For the molecule `CCn1nccc1C(=O)N[C@H](C(=O)Nc1ccc([C@H](C)[C@@H](NC(=O)CN2CCC2)c2ncnn2CC2CC2)cc1F)C(C1CC1)C1CC1` [Compound 51, N-((S)-1-((4-((1R,2S)-1-(2-(azetidin-1-yl)acetamido)-1-(1-(cyclopropylmethyl)-1H-1,2,4-triazol-5-yl)propan-2-yl)-2-fluorophenyl)amino)-3,3-dicyclopropyl-1-oxopropan-2-yl)-1-ethyl-1H-pyrazole-5-carboxamide], the IC50 in test [1] stood at 211 nM; at IL-17AA and IL-17RA it was 50 nM; in test [2] it was 178 nM.

`CCn1nccc1C(=O)N[C@H](C(=O)Nc1ccc([C@H](C)[C@@H](NC(=O)COC)c2ncnn2CCN2CCN(C)CC2)cc1F)C(C1CC1)C1CC1` [Compound 52, N-((S)-1,1-dicyclopropyl-3-((2-fluoro-4-((1R,2S)-1-(2-methoxyacetamido)-1-(1-(2-(4-methylpiperazin-1-yl)ethyl)-1H-1,2,4-triazol-5-yl)propan-2-yl)phenyl)amino)-3-oxopropan-2-yl)-1-ethyl-1H-pyrazole-5-carboxamide]: the IC50 amounted to 2730 nM in test [1]; 182 nM at IL-17AA and IL-17RA; 2220 nM in test [2].

Turning to `COCC(=O)N[C@@H](c1ncnn1CC1CC1)[C@@H](C)c1ccc(NC(=O)[C@@H](NC(=O)c2ccnn2C)C(C2CC2)C2CC2)c(F)c1` [Compound 53, N-((S)-1,1-dicyclopropyl-3-((4-((1R,2S)-1-(1-(cyclopropylmethyl)-1H-1,2,4-triazol-5-yl)-1-(2-methoxyacetamido)propan-2-yl)-2-fluorophenyl)amino)-3-oxopropan-2-yl)-1-methyl-1H-pyrazole-5-carboxamide], the IC50 was 16 nM in test [1]; 7.4 nM at IL-17AA and IL-17RA; 5.6 nM in test [2].

As for `COCC(=O)N[C@@H](c1nnnn1CC1CC1)[C@@H](C)c1ccc(NC(=O)[C@@H](NC(=O)c2nonc2C)C(C2CC2)C2CC2)c(F)c1` [Compound 54, N-((S)-1,1-dicyclopropyl-3-((4-((1R,2S)-1-(1-(cyclopropylmethyl)-1H-tetrazol-5-yl)-1-(2-methoxyacetamido)propan-2-yl)-2-fluorophenyl)amino)-3-oxopropan-2-yl)-4-methyl-1,2,5-oxadiazole-3-carboxamide], the IC50 was 16 nM in test [1]; 3 nM on IL-17AA and IL-17RA; 3.6 nM in test [2].

As to `Cc1nonc1C(=O)N[C@H](C(=O)Nc1ccc([C@H](C)[C@@H](NC(=O)COC2CNC2)c2ncnn2CC2CC2)cc1F)C(C1CC1)C1CC1` [Compound 55, N-((S)-1-((4-((1R,2S)-1-(2-(azetidin-3-yloxy)acetamido)-1-(1-(cyclopropylmethyl)-1H-1,2,4-triazol-5-yl)propan-2-yl)-2-fluorophenyl)amino)-3,3-dicyclopropyl-1-oxopropan-2-yl)-4-methyl-1,2,5-oxadiazole-3-carboxamide], the IC50 in test [1] was found to be 210 nM; at IL-17AA and IL-17RA, 40 nM; in test [2], 142 nM.

On to `Cc1nonc1C(=O)N[C@H](C(=O)Nc1ccc([C@H](C)[C@@H](NC(=O)COC2CN(C)C2)c2ncnn2CC2CC2)cc1F)C(C1CC1)C1CC1` [Compound 56, N-((S)-1,1-dicyclopropyl-3-((4-((1R,2S)-1-(1-(cyclopropylmethyl)-1H-1,2,4-triazol-5-yl)-1-(2-((1-methylazetidin-3-yl)oxy)acetamido)propan-2-yl)-2-fluorophenyl)amino)-3-oxopropan-2-yl)-4-methyl-1,2,5-oxadiazole-3-carboxamide], for which the IC50 in test [1] came out at 145 nM; on IL-17AA and IL-17RA, 13 nM; in test [2] it was 78 nM.

As for `Cc1nonc1C(=O)N[C@H](C(=O)Nc1ccc([C@H](C)[C@@H](NC(=O)CO)c2ncnn2CC2CC2)cc1F)C(C1CC1)C1CC1` [Compound 57, N-((S)-1,1-dicyclopropyl-3-((4-((1R,2S)-1-(1-(cyclopropylmethyl)-1H-1,2,4-triazol-5-yl)-1-(2-hydroxyacetamido)propan-2-yl)-2-fluorophenyl)amino)-3-oxopropan-2-yl)-4-methyl-1,2,5-oxadiazole-3-carboxamide], the IC50 in test [1] stood at 88 nM; on IL-17AA and IL-17RA, 6.8 nM; in test [2], 95 nM.

As to `[2H]C([2H])([2H])OCC(=O)N[C@@H](c1ncnn1CC1CC1)[C@@H](C)c1ccc(NC(=O)[C@@H](NC(=O)c2nonc2C)C(C2CC2)C2CC2)c(F)c1` [Compound 58, N-((S)-1,1-dicyclopropyl-3-((4-((1R,2S)-1-(1-(cyclopropylmethyl)-1H-1,2,4-triazol-5-yl)-1-(2-(methoxy-d3)acetamido)propan-2-yl)-2-fluorophenyl)amino)-3-oxopropan-2-yl)-4-methyl-1,2,5-oxadiazole-3-carboxamide], the IC50 in test [1] came to 3.8 nM; on IL-17AA and IL-17RA, 1.4 nM; in test [2] it was 5 nM.

On to `CCn1nccc1C(=O)N[C@H](C(=O)Nc1ccc([C@H](C)[C@@H](NC(=O)COC)c2nnc(C3CCN3C)s2)cc1F)C(C1CC1)C1CC1` (stereo partly drawn) [Compound 59, N-((2S)-1,1-dicyclopropyl-3-((2-fluoro-4-((1R,2S)-1-(2-methoxyacetamido)-1-(5-(1-methylazetidin-2-yl)-1,3,4-thiadiazol-2-yl)propan-2-yl)phenyl)amino)-3-oxopropan-2-yl)-1-ethyl-1H-pyrazole-5-carboxamide], for which the IC50 was 1550 nM in test [1]; 235 nM at IL-17AA and IL-17RA; 946 nM in test [2].

Take `Cc1nonc1C(=O)N[C@H](C(=O)Nc1ccc([C@H](C)[C@@H](NC(=O)COC2CC2)c2ncnn2CC2CC2)cc1F)C(C1CC1)C1CC1` [Compound 60, N-((S)-1-((4-((1R,2S)-1-(2-cyclopropoxyacetamido)-1-(1-(cyclopropylmethyl)-1H-1,2,4-triazol-5-yl)propan-2-yl)-2-fluorophenyl)amino)-3,3-dicyclopropyl-1-oxopropan-2-yl)-4-methyl-1,2,5-oxadiazole-3-carboxamide]: the IC50 in test [1] turned out to be 3.9 nM; on IL-17AA and IL-17RA, 1.7 nM; in test [2] it was 3.3 nM.

Regarding `COCC(=O)N[C@@H](c1ncnn1CCN(C)C)[C@@H](C)c1ccc(NC(=O)[C@@H](NC(=O)c2nonc2C)C(C2CC2)C2CC2)c(F)c1` [Compound 61, N-((S)-1,1-dicyclopropyl-3-((4-((1R,2S)-1-(1-(2-(dimethylamino)ethyl)-1H-1,2,4-triazol-5-yl)-1-(2-methoxyacetamido)propan-2-yl)-2-fluorophenyl)amino)-3-oxopropan-2-yl)-4-methyl-1,2,5-oxadiazole-3-carboxamide], the IC50 in test [1] turned out to be 74 nM; at IL-17AA and IL-17RA it was 12 nM; in test [2], 39 nM.

Consider `[2H]C([2H])([2H])n1nccc1C(=O)N[C@H](C(=O)Nc1ccc([C@H](C)[C@@H](NC(=O)CC)c2ncnn2CC2CC2)cc1F)C(C1CC1)C1CC1` [Compound 62, N-((S)-1,1-dicyclopropyl-3-((4-((1R,2S)-1-(1-(cyclopropylmethyl)-1H-1,2,4-triazol-5-yl)-1-propionamidopropan-2-yl)-2-fluorophenyl)amino)-3-oxopropan-2-yl)-1-(methyl-d3)-1H-pyrazole-5-carboxamide], for which the IC50 stood at 18.4 nM in test [1]; 2.6 nM on IL-17AA and IL-17RA; 6.5 nM in test [2].

Regarding `CCOCC(=O)N[C@@H](c1ncnn1CC1CC1)[C@@H](C)c1ccc(NC(=O)[C@@H](NC(=O)c2nonc2C)C(C2CC2)C2CC2)c(F)c1` [Compound 63, N-((S)-1,1-dicyclopropyl-3-((4-((1R,2S)-1-(1-(cyclopropylmethyl)-1H-1,2,4-triazol-5-yl)-1-(2-ethoxyacetamido)propan-2-yl)-2-fluorophenyl)amino)-3-oxopropan-2-yl)-4-methyl-1,2,5-oxadiazole-3-carboxamide], the IC50 was 8.3 nM in test [1]; 2.5 nM on IL-17AA and IL-17RA; 4 nM in test [2].

Turning to `Cc1nonc1C(=O)N[C@H](C(=O)Nc1ccc([C@H](C)[C@@H](NC(=O)COC(F)(F)F)c2ncnn2CC2CC2)cc1F)C(C1CC1)C1CC1` [Compound 64, N-((S)-1,1-dicyclopropyl-3-((4-((1R,2S)-1-(1-(cyclopropylmethyl)-1H-1,2,4-triazol-5-yl)-1-(2-(trifluoromethoxy)acetamido)propan-2-yl)-2-fluorophenyl)amino)-3-oxopropan-2-yl)-4-methyl-1,2,5-oxadiazole-3-carboxamide], the IC50 in test [1] is 5.9 nM; at IL-17AA and IL-17RA it was 1.1 nM; in test [2], 3.6 nM.
